Columns and labels:
[1] = system: Raf kinase; test: Raf kinase activity, phosphorylation of MBP; settings: for phosphorylation of the Raf kinase substrate MBP: at concentrations below 10 μM
[2] = system: MEK1/2; test: Competitive pull-down with JTP-74100-conjugated resin from HT-29 cytosolic fraction; format: binding, human; settings: 46-kDa band on SDS-PAGE
[3] = system: HT-29 cells; test: Growth inhibition of HT-29 cells by [3H]-TdR incorporation; format: cell-based; settings: Homo sapiens, [3H]-TdR incorporation during last 6 h of 3-day culture, read-out: growth inhibitory activity (IC50)
Procedure: HT-29 cells were cultured in McCoy's 5a medium supplemented with 10% (v/v) fetal bovine serum and antibiotics. ACHN and HEK293T cells were maintained in Dulbecco's modified Eagle's medium supplemented with 10% (v/v) fetal bovine serum and antibiotics in a humidified CO2 incubator. The growth inhibitory activities of compounds toward HT-29 cells were determined by [^3H]-TdR incorporation for the last 6 h of a 3-day culture period. […] The lysed cells were then homogenized by 20 strokes of a loose-fitting Dounce homogenizer and centrifuged for 6 min at 4,300×g to separate the nuclei from the cytoplasmic fraction. The cytoplasmic fraction was ultracentrifuged for 1 h at 150,000×g and the supernatant was dialyzed against a buffer containing 20 mM HEPES (pH 7.9), 20% (v/v) glycerol, 0.1 M KCl, 0.2 mM EDTA, 0.5 mM PMSF and 0.5 mM DTT for 5 h at 4°C. After centrifugation for 20 min at 15,000×g, the supernatant was collected as the cytosolic fraction.

[4] = target: Inactive u-MEK (K97R) (Homo sapiens, UniProt Q02750, K97R); test: Temperature-dependent CD analysis of u-MEK; settings: 10 μM compound, 3 μM u-MEK; u-MEK alone 50.2 °C
[5] = system: ACHN cells; test: Western blot of MEK and ERK phosphorylation in ACHN cells; format: cell-based, human; settings: ACHN cells (K-Ras mutated, B-Raf unmutated), 24 h
Procedure: (§1) Cultured cells were treated with various compounds and then lysed in lysis buffer (50 mM Tris-HCl pH 7.4, 150 mM NaCl, 1 mM EGTA, 1 mM Na3Vo4, 1% Triton X-100 and EDTA-free protease inhibitor cocktail). The cell lysates were collected and centrifuged, and the supernatants were subjected to SDS-PAGE. After the electrophoresis, the proteins were transferred onto PVDF membranes at 1 mA/cm^2 for 1 h. The membranes were incubated in blocking solution (Blockace; Nacalai Tesque, Kyoto, Japan) and washed with PBS containing 0.1% Tween 20 (PBS/T). The membranes were then incubated with the primary antibody, washed three times with PBS/T and incubated with the secondary antibody. After washing with PBS/T, the membranes were incubated with ECL-Plus or ECL-Advanced western blot reagents (GE Healthcare, Little Chalfont, Buckinghamshire, UK) for 5 min, exposed to ECL Hyperfilm and visualized using a LAS3000 imager (Fujifilm).

[6] = system: various cancer cells; test: Western blot of MEK and ERK phosphorylation in various cancer cell lines; format: cell-based; settings: 2 h
Procedure: as §1

[7] = system: HT-29 cells; test: Western blot of MEK and ERK phosphorylation in HT-29 cells; format: cell-based, human; settings: for MEK phosphorylation status after pulse treatment: 2 h treatment then washout
[8] = cited from earlier work
[9] = set-up: method as in PMID 22805291; settings: orally administered, cancer patients, phase I study; cited from earlier work
[10] = target: T1, p-MEK1 (Homo sapiens, UniProt Q02750); test: Kinetic (double-reciprocal) analysis of MEK inhibition in the MEK-ERK reaction; format: biochemical; settings: p-MEK-ATP complex, double-reciprocal plots vs ATP
T1 construct: purchased Upstate Technology (Waltham, MA)

[11] = system: HT-29 cells and ACHN cells; test: Western blot of downstream signaling molecules (c-Myc, cyclin D1, p15INK4b, p27KIP1); format: cell-based, human; settings: 24 h treatment
Procedure: as §1
Supplemental Table: Identif ied Peptide Sequences of 46 kDa Proteins.
ACCESSION Start - End Obsrved Mr(expt) Mr(calc) Sequence
Supp lemental Figure: Alterations of downstream signaling molecules in cancer cells by
(A, B) HT-29 cells (A) and ACHN cells (B) were treated with the
indicated concentrations of each compound for 24 h,same as the experiment of F ig u re 3A. And
the cell lysates were analyzed by western blotting using antibodies specific to c-M yc (Upstate […]

[12] = target: B-Raf (Homo sapiens, UniProt P15056, V600E); test: biochemical
[13] = target: c-Raf (Homo sapiens, UniProt P04049); test: Raf/MBP kinase assay, c-Raf
c-Raf, sequence (P04049 306-648): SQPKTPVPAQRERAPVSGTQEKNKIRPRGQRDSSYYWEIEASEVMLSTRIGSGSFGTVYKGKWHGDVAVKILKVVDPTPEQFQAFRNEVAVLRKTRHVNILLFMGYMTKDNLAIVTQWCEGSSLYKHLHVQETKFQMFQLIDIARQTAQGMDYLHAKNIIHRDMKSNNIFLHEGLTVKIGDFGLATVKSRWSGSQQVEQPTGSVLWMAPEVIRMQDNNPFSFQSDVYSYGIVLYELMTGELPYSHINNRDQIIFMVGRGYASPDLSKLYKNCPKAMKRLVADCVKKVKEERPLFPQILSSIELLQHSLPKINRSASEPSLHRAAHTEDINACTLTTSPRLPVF

B-Raf, sequence (P15056 whole entry V600E): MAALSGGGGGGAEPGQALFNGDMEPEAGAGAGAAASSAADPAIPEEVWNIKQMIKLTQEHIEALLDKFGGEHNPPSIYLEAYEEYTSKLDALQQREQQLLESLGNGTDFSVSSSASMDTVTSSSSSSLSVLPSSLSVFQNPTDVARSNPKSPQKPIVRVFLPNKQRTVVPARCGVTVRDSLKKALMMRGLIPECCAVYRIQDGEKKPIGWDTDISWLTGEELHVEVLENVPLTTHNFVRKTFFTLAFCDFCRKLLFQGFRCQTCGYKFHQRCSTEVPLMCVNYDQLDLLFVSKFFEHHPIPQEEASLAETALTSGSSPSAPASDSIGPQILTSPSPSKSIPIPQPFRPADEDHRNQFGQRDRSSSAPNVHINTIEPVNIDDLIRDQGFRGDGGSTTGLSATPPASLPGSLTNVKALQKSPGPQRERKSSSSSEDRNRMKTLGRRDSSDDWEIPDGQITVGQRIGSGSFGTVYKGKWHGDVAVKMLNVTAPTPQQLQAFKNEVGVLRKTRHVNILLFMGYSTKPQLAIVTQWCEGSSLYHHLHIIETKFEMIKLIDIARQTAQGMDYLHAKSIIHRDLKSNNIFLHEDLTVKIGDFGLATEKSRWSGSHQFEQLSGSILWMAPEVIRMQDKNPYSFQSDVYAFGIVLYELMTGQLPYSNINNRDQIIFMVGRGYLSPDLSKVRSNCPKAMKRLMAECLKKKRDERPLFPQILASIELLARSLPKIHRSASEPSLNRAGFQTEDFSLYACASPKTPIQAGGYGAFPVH

CNC(=O)c1cc(Oc2ccc(NC(=O)Nc3ccc(Cl)c(C(F)(F)F)c3)cc2)ccn1 [BAY 43-9006]
concentration that inhibited Raf kinase activity ([1]; same conditions as Raf/MBP assay, data not shown): 0.1 µM

COc1ccccc1Nc1cc(=O)n(C)c2c1c(=O)n(-c1ccccc1)c(=O)n2-c1ccccc1 [JTP-65634]
concentration needed to clearly compete with JTP-74100-immobilized resin for binding to MEK [2]: > 100 µM | IC50 [3]: > 10000 nM

Cn1c(=O)cc(Nc2ccc(I)cc2F)c2c(=O)n(C3CC3)c(=O)n(-c3cccc(NS(C)(=O)=O)c3)c21 [JTP-70945]
concentration needed to clearly compete with JTP-74100-immobilized resin for binding to MEK [2]: above 10 μM | IC50 [3]: 0.39 nM

CC(=O)Nc1cccc(-n2c(=O)n(C3CC3)c(=O)c3c(Nc4ccc(I)cc4F)n(C)c(=O)c(C)c32)c1 [JTP-74057]
Tm of u-MEK with compound (CD) [4]: 57.5 °C | phosphorylation of the Raf kinase substrate MBP [1]: not inhibited | accumulation of p-MEK [5]: did not significantly, or slightly if any, induce accumulation of p-MEK | p-MEK levels in HCT-15, LS-174T, T84 and LoVo cells ([6]; 100 nM): did not decrease or decrease to a lesser extent | p-MEK levels in HT-29, COLO-205, HCT-116, SW480 and SW620 cells ([6]; 100 nM (HT-29 10 nM)): decreased | ERK phosphorylation in various cancer cell lines ([6]; 100 nM (HT-29 10 nM), 10 cell lines): efficiently inhibited in almost all cell lines, except for COLO-320DM | time at which p-MEK level was decreased ([7]; 10 nM): ≤ 15 min | time at which p-MEK was almost ablated ([7]; 10 nM): 30 min | MEK phosphorylation status after pulse treatment [7]: disappearance of p-MEK was sustained for a considerable period | ERK phosphorylation ([7]; 24 h): inhibited ERK phosphorylation | p-MEK level ([7]; 24 h): decreased the p-MEK level | ERK phosphorylation in grafted cancer tissues ([8]; animals, after oral administration): inhibited ERK phosphorylation | half-life in the blood ([8]; in vivo, po): long half-life | t1/2 [9]: about 4 days | Ki' (MEK/ATP vs. compound) [10]: 290 ± 80 nM | IC50 [3]: 0.57 nM | concentration at which accumulation of p15INK4b and p27KIP1 and decrease of c-Myc and Cyclin D1 were observed [11]: 1 nM | IC50 [12]: > 10000 nM | IC50 [13]: > 10000 nM

O=C(NOC[C@H](O)CO)c1ccc(F)c(F)c1Nc1ccc(I)cc1F [PD0325901, reference compound]
phosphorylation of the Raf kinase substrate MBP [1]: not inhibited | accumulation of p-MEK [5]: induced significant accumulation of p-MEK | time for p-ERK level to return to nearly normal level after removal ([7]; 100 nM for 2 h then washout): ≤ 1 h | MEK phosphorylation status after pulse treatment [7]: did not affect the MEK phosphorylation status | ERK phosphorylation ([7]; 24 h): inhibited ERK phosphorylation | IC50 [3]: 3.4 nM | concentration at which accumulation of p15INK4b and p27KIP1 and decrease of c-Myc and Cyclin D1 were observed [11]: 10 nM

N#CC(=C(/N)Sc1ccccc1N)/C(C#N)=C(\N)Sc1ccccc1N [U0126, reference compound]
concentration needed to clearly compete with JTP-74100-immobilized resin for binding to MEK [2]: 100 µM

CCCCC(=O)NCCC(=O)Nc1cccc(-n2c(=O)n(C3CC3)c(=O)c3c(Nc4ccccc4F)n(C)c(=O)c(C)c32)c1 [pentanoyl JTP-74099]
IC50 [3]: 840 nM

CCCCC(=O)NCCC(=O)Nc1cccc(-n2c(=O)n(C3CC3)c(=O)c3c(Nc4ccc(I)cc4F)n(C)c(=O)c(C)c32)c1 [pentanoyl JTP-74100]
IC50 [3]: 2.1 nM

Source: publication PMC3681492, “Identification and Characterization of a Novel Chemotype MEK Inhibitor Able to Alter the Phosphorylation State of MEK1/2” (Oncotarget, 2012)
